From ChEMBL document CHEMBL1629642, “In vitro efficacy of ST246 against smallpox and monkeypox” (Antimicrob Agents Chemother, 2009)
The source made the active and inactive calls.

How the values were obtained:
Monkeypox virus [1] = assay: Antiviral activity against Monkeypox virus V1979-I-005 infected in african green monkey BSC-40 cells at 0.05 to 0.5 uM by IHC staining-based plaque reduction assay; format: functional, organism-based
Monkeypox virus [2] = assay: Antiviral activity against Monkeypox virus V77-I-823 infected in african green monkey BSC-40 cells assessed as reduction in virus-induced cytopathic effect; format: functional, organism-based; conditions: V77-I-823, BSC-40
Variola virus [3] = assay: Antiviral activity against Variola virus SUD47-juba infected in african green monkey BSC-40 cells at 0.005 uM uM by IHC staining-based plaque reduction assay; format: functional, organism-based
Variola virus [4] = assay: microbe, parasite or virus in culture; conditions: SUD47-juba, BSC-40
Variola virus [5] = assay: Antiviral activity against Variola virus BRZ66-39 infected in african green monkey BSC-40 cells at 0.015 uM assessed as reduction in virus-induced cytopathic effect; format: functional, organism-based
Monkeypox virus [6] = assay: Antiviral activity against Monkeypox virus V1979-I-005 infected in african green monkey BSC-40 cells assessed as reduction in virus-induced cytopathic effect at 0.015 uM; format: functional, organism-based
Variola virus [7] = assay: Antiviral activity against Variola virus SOM77-ali infected in african green monkey BSC-40 cells at 0.005 uM uM by IHC staining-based plaque reduction assay; format: functional, organism-based
Monkeypox virus [8] = assay: Antiviral activity against Monkeypox virus V81-I-179 infected in african green monkey BSC-40 cells assessed as reduction in virus-induced cytopathic effect at 0.05 to 5 uM; format: functional, organism-based
Monkeypox virus [9] = assay: Antiviral activity against Monkeypox virus V78-I-3945 infected in african green monkey BSC-40 cells assessed as reduction in virus-induced cytopathic effect; format: functional, organism-based; conditions: V78-I-3945, BSC-40
Monkeypox virus [10] = assay: Antiviral activity against Monkeypox virus V1979-I-005 infected in african green monkey BSC-40 cells at 0.05 to 0.5 uM by IHC staining-based comet tail reduction assay; format: functional, organism-based
Monkeypox virus [11] = assay: Antiviral activity against Monkeypox virus V81-I-179 infected in african green monkey BSC-40 cells at 0.005 uM uM by IHC staining-based plaque reduction assay; format: functional, organism-based
Monkeypox virus [12] = assay: Antiviral activity against Monkeypox virus 2003-USA-039 infected in african green monkey BSC-40 cells at 0.005 uM by IHC staining-based comet tail reduction assay; format: functional, organism-based
Variola virus [13] = assay: Antiviral activity against Variola virus NEP73-175 infected in african green monkey BSC-40 cells at 0.005 uM by IHC staining-based comet tail reduction assay; format: functional, organism-based
Variola virus [14] = assay: Antiviral activity against Variola virus BSH74-sol infected in african green monkey BSC-40 cells at 0.005 uM uM by IHC staining-based plaque reduction assay; format: functional, organism-based
Variola virus [15] = assay: Antiviral activity against Variola virus SOM77-ali infected in african green monkey BSC-40 cells at 0.005 uM assessed as reduction in virus-induced cytopathic effect; format: functional, organism-based
Variola virus [16] = assay: Antiviral activity against Variola virus NEP73-175 infected in african green monkey BSC-40 cells at 0.005 uM uM by IHC staining-based plaque reduction assay; format: functional, organism-based
Monkeypox virus [17] = assay: Antiviral activity against Monkeypox virus V81-I-179 infected in african green monkey BSC-40 cells at 0.05 to 0.5 uM by IHC staining-based comet tail reduction assay; format: functional, organism-based
Variola virus [18] = assay: Antiviral activity against Variola virus SOM77-ali infected in african green monkey BSC-40 cells at 0.005 uM by IHC staining-based comet tail reduction assay; format: functional, organism-based
Variola virus [19] = assay: Antiviral activity against Variola virus BSH74-sol infected in african green monkey BSC-40 cells at 0.005 uM by IHC staining-based comet tail reduction assay; format: functional, organism-based
Monkeypox virus [20] = assay: Antiviral activity against Monkeypox virus V78-I-3945 infected in african green monkey BSC-40 cells assessed as reduction in viral plaque formation at 0.015 uM uM by IHC staining-based plaque reduction assay; format: functional
Monkeypox virus [21] = assay: Antiviral activity against Monkeypox virus 2003-USA-039 infected in african green monkey BSC-40 cells at 0.015 uM by IHC staining-based comet tail reduction assay; format: functional, organism-based
Monkeypox virus [22] = assay: Antiviral activity against Monkeypox virus 2003-USA-039 infected in african green monkey BSC-40 cells assessed as reduction in viral plaque formation at 0.015 uM uM by IHC staining-based plaque reduction assay; format: functional
Variola virus [23] = assay: Antiviral activity against Variola virus SLN68-258 infected in african green monkey BSC-40 cells at 0.015 uM by IHC staining-based comet tail reduction assay; format: functional, organism-based
Variola virus [24] = assay: Antiviral activity against Variola virus BSH74-sol infected in african green monkey BSC-40 cells at 0.05 to 5 uM assessed as reduction in virus-induced cytopathic effect; format: functional, organism-based
Variola virus [25] = assay: Antiviral activity against Variola virus BSH74-sol infected in african green monkey BSC-40 cells at 0.05 to 0.5 uM by IHC staining-based plaque reduction assay; format: functional, organism-based
Variola virus [26] = assay: Antiviral activity against Variola virus SUD47-juba infected in african green monkey BSC-40 cells assessed as reduction in viral plaque formation at 0.015 uM uM by IHC staining-based plaque reduction assay; format: functional
Variola virus [27] = assay: Antiviral activity against Variola virus infected in african green monkey vero cells assessed as reduction in virus-induced cytopathic effect; format: functional, organism-based
Variola virus [28] = assay: microbe, parasite or virus in culture; conditions: SLN68-258, BSC-40
Variola virus [29] = assay: microbe, parasite or virus in culture; conditions: NEP73-175, BSC-40
Monkeypox virus [30] = assay: Antiviral activity against Monkeypox virus V77-I-823 infected in african green monkey BSC-40 cells assessed as reduction in virus-induced cytopathic effect at 0.05 to 5 uM; format: functional, organism-based
Monkeypox virus [31] = assay: Antiviral activity against Monkeypox virus V81-I-179 infected in african green monkey BSC-40 cells at 0.05 to 0.5 uM by IHC staining-based plaque reduction assay; format: functional, organism-based
Monkeypox virus [32] = assay: Antiviral activity against Monkeypox virus 2003-USA-039 infected in african green monkey BSC-40 cells assessed as reduction in virus-induced cytopathic effect at 0.05 to 5 uM; format: functional, organism-based
Variola virus [33] = assay: Antiviral activity against Variola virus SOM77-ali infected in african green monkey BSC-40 cells at 0.05 to 0.5 uM by IHC staining-based plaque reduction assay; format: functional, organism-based
Variola virus [34] = assay: Antiviral activity against Variola virus SUD47-juba infected in african green monkey BSC-40 cells at 0.015 uM by IHC staining-based comet tail reduction assay; format: functional, organism-based
Variola virus [35] = assay: Antiviral activity against Variola virus BRZ66-39 infected in african green monkey BSC-40 cells at 0.05 to 0.5 uM by IHC staining-based plaque reduction assay; format: functional, organism-based
Variola virus [36] = assay: Antiviral activity against Variola virus BSH74-sol infected in african green monkey BSC-40 cells at 0.015 uM assessed as reduction in virus-induced cytopathic effect; format: functional, organism-based
Monkeypox virus [37] = assay: Antiviral activity against Monkeypox virus 2003-USA-039 infected in african green monkey BSC-40 cells at 0.05 to 0.5 uM by IHC staining-based comet tail reduction assay; format: functional, organism-based
Monkeypox virus [38] = assay: Antiviral activity against Monkeypox virus V1979-I-005 infected in african green monkey BSC-40 cells at 0.015 uM by IHC staining-based comet tail reduction assay; format: functional, organism-based

O=C(NN1C(=O)[C@@H]2[C@@H]3C=C[C@@H]([C@H]4C[C@@H]34)[C@@H]2C1=O)c1ccc(C(F)(F)F)cc1 [TECOVIRIMAT]
0.021 µM: EC50 (Variola virus [29])
inactive: Activity (Variola virus [3]) | Activity (Variola virus [7]) | Activity (Monkeypox virus [11]) | Activity (Monkeypox virus [12]) | Activity (Variola virus [13]) | Activity (Variola virus [14]) | Activity (Variola virus [15]) | Activity (Variola virus [16]) | Activity (Variola virus [18]) | Activity (Variola virus [19])
0.03 µM: EC50 (Monkeypox virus [2])
0.019 µM: EC50 (Variola virus [4])
active: Activity (Monkeypox virus [1]) | Activity (Variola virus [5]) | Activity (Monkeypox virus [6]) | Activity (Monkeypox virus [8]) | Activity (Monkeypox virus [10]) | Activity (Monkeypox virus [17]) | Activity (Monkeypox virus [21]) | Activity (Variola virus [23]) | Activity (Variola virus [24]) | Activity (Variola virus [25]) | Activity (Variola virus [27]) | Activity (Monkeypox virus [30]) | Activity (Monkeypox virus [31]) | Activity (Monkeypox virus [32]) | Activity (Variola virus [33]) | Activity (Variola virus [34]) | Activity (Variola virus [35]) | Activity (Variola virus [36]) | Activity (Monkeypox virus [37]) | Activity (Monkeypox virus [38])
0.037 µM: EC50 (Variola virus [28])
50%: inhibition (INH) (Monkeypox virus [20]) | inhibition (INH) (Monkeypox virus [22]) | inhibition (INH) (Variola virus [26])
0.023 µM: EC50 (Monkeypox virus [9])
